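The compound was tested at five concentrations on cells cultured in 96-well plates, with a 48-hour exposure period. GI50 is the concentration that inhibits growth by half.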 Active and inactive are the calls of the source. No stated cut-off is given here; in the data, active = GI50 up to about 1.1 µM and inactive = higher.
What was measured:
Experiment in all cases: NCI tumour cell line growth inhibition, 48 h
HT-29 = test system: HT-29
OVCAR-8 = test system: OVCAR-8
NCI-H226 = test system: NCI-H226
M14 = test system: M14
BT-549 = test system: BT-549
NCI-H522 = test system: NCI-H522
MOLT-4 = test system: MOLT-4
SNB-19 = test system: SNB-19
UACC-257 = test system: UACC-257
SF-539 = test system: SF-539
Hs-578T = test system: Hs-578T
OVCAR-3 = test system: OVCAR-3
OVCAR-5 = test system: OVCAR-5
UO-31 = test system: UO-31
OVCAR-4 = test system: OVCAR-4
T47D = test system: T47D
RXF 393 = test system: RXF 393
MCF7 = test system: MCF7
NCI-H460 = test system: NCI-H460
MDA-N = test system: MDA-N

Row | SMILES | GI50 (HT-29) | GI50 (OVCAR-8) | GI50 (NCI-H226) | GI50 (M14) | GI50 (BT-549) | GI50 (NCI-H522) | GI50 (MOLT-4) | GI50 (SNB-19) | GI50 (UACC-257) | GI50 (SF-539) | GI50 (Hs-578T) | GI50 (OVCAR-3) | GI50 (OVCAR-5) | GI50 (UO-31) | GI50 (OVCAR-4) | GI50 (T47D) | GI50 (RXF 393) | GI50 (MCF7) | GI50 (NCI-H460) | GI50 (MDA-N)
1 | [N-]=[N+]=Nc1cc(=O)n(-c2ccccc2)c(=O)n1-c1ccccc1 | > 100 µM (inactive) | > 100 µM (inactive) | > 100 µM (inactive) | > 100 µM (inactive) | > 100 µM (inactive) | > 100 µM (inactive) | > 100 µM (inactive) | > 100 µM (inactive) | > 100 µM (inactive) | > 100 µM (inactive) | > 100 µM (inactive) | > 100 µM (inactive) | > 100 µM (inactive) | > 100 µM (inactive) | > 100 µM (inactive) | > 100 µM (inactive) | > 100 µM (inactive) | > 100 µM (inactive) | – | –
2 | C1CN2N3CCCC23C1 (stereo unspecified) | > 100 µM (inactive) | > 100 µM (inactive) | > 100 µM (inactive) | > 100 µM (inactive) | – | > 100 µM (inactive) | > 100 µM (inactive) | > 100 µM (inactive) | > 100 µM (inactive) | > 100 µM (inactive) | – | > 100 µM (inactive) | > 100 µM (inactive) | > 100 µM (inactive) | > 100 µM (inactive) | – | > 100 µM (inactive) | – | > 100 µM (inactive) | –
3 | Nc1ccc(C23CC4CC(C2)CC(c2ccc(N)cc2)(C4)C3)cc1 | – | 85.1 µM (inactive) | 11.5 µM (inactive) | 37.2 µM (inactive) | 42.9 µM (inactive) | – | 11.3 µM (inactive) | 37.8 µM (inactive) | 75.5 µM (inactive) | 16.4 µM (inactive) | – | 48.5 µM (inactive) | 27.7 µM (inactive) | 48.6 µM (inactive) | 10.2 µM (inactive) | – | – | 31.8 µM (inactive) | 37.2 µM (inactive) | 37.7 µM (inactive)
4 | Cc1ccc2nc3ccccc3c(C3C4C(=O)N(c5ccc(F)cc5)C(=O)C4ON3C(C(N)=O)c3ccccc3)c2c1 (stereo unspecified) | 26.1 µM (inactive) | 46 µM (inactive) | 46.3 µM (inactive) | 57 µM (inactive) | > 100 µM (inactive) | 17.5 µM (inactive) | 41.6 µM (inactive) | 57.8 µM (inactive) | 42.7 µM (inactive) | 27.6 µM (inactive) | 31.3 µM (inactive) | 26.7 µM (inactive) | 25.8 µM (inactive) | 36.1 µM (inactive) | 41.1 µM (inactive) | 84.1 µM (inactive) | 30.2 µM (inactive) | 23.4 µM (inactive) | 34.8 µM (inactive) | –
5 | O=c1[nH]nc(-c2ccccc2)n1O | > 100 µM (inactive) | > 100 µM (inactive) | > 100 µM (inactive) | > 100 µM (inactive) | – | > 100 µM (inactive) | > 100 µM (inactive) | > 100 µM (inactive) | > 100 µM (inactive) | > 100 µM (inactive) | > 100 µM (inactive) | > 100 µM (inactive) | > 100 µM (inactive) | > 100 µM (inactive) | > 100 µM (inactive) | > 100 µM (inactive) | > 100 µM (inactive) | > 100 µM (inactive) | > 100 µM (inactive) | > 100 µM (inactive)
6 | COC(=O)C1(C(=O)OC)N=C(C)OC1c1ccccc1O (stereo unspecified) | – | > 100 µM (inactive) | > 100 µM (inactive) | > 100 µM (inactive) | > 100 µM (inactive) | – | > 100 µM (inactive) | > 100 µM (inactive) | > 100 µM (inactive) | – | – | > 100 µM (inactive) | > 100 µM (inactive) | > 100 µM (inactive) | > 100 µM (inactive) | > 100 µM (inactive) | > 100 µM (inactive) | > 100 µM (inactive) | > 100 µM (inactive) | –
7 | Cc1ccc(/C=C2\NC(=S)N(CN3CCOCC3)C2=O)cc1 | > 100 µM (inactive) | > 100 µM (inactive) | > 100 µM (inactive) | > 100 µM (inactive) | – | – | > 100 µM (inactive) | > 100 µM (inactive) | > 100 µM (inactive) | – | > 100 µM (inactive) | > 100 µM (inactive) | > 100 µM (inactive) | > 100 µM (inactive) | > 100 µM (inactive) | – | – | 66.5 µM (inactive) | – | > 100 µM (inactive)
8 | CCCCCCCCCCC(O)CCCCCCC(=O)O (stereo unspecified) | 19.9 µM (inactive) | 16.2 µM (inactive) | 52 µM (inactive) | 19.1 µM (inactive) | – | 24.5 µM (inactive) | 12.7 µM (inactive) | 48.8 µM (inactive) | 69.3 µM (inactive) | 24.3 µM (inactive) | – | 19.9 µM (inactive) | 29.4 µM (inactive) | 29.9 µM (inactive) | 39.1 µM (inactive) | – | 34.1 µM (inactive) | – | 16.3 µM (inactive) | –
9 | CCOC(=O)C(=O)C=P(c1ccccc1)(c1ccccc1)c1ccccc1 | > 100 µM (inactive) | > 100 µM (inactive) | > 100 µM (inactive) | > 100 µM (inactive) | – | > 100 µM (inactive) | > 100 µM (inactive) | > 100 µM (inactive) | > 100 µM (inactive) | > 100 µM (inactive) | – | > 100 µM (inactive) | > 100 µM (inactive) | > 100 µM (inactive) | > 100 µM (inactive) | – | > 100 µM (inactive) | – | 34.6 µM (inactive) | –
10 | Nc1ncc(/C=N/O)c(NCC2(CO)CC(CCc3ccccc3)C2)n1 (stereo unspecified) | 2.67 µM (inactive) | 11.1 µM (inactive) | 12.9 µM (inactive) | – | > 10 µM (inactive) | 3.22 µM (inactive) | 3.36 µM (inactive) | – | 10.9 µM (inactive) | 13.8 µM (inactive) | 22.4 µM (inactive) | 11 µM (inactive) | 16.9 µM (inactive) | 5.45 µM (inactive) | 8.26 µM (inactive) | 0.0111 µM (active) | 12.1 µM (inactive) | 4.58 µM (inactive) | 5.74 µM (inactive) | –
11 | COC1C(OC(=O)/C=C/C=C/C=C/C=C\C(=O)O)CCC2(CO2)C1C1(C)OC1CC=C(C)C (stereo unspecified) | > 100 µM (inactive) | > 100 µM (inactive) | > 100 µM (inactive) | > 100 µM (inactive) | > 100 µM (inactive) | > 100 µM (inactive) | > 100 µM (inactive) | > 100 µM (inactive) | > 100 µM (inactive) | > 100 µM (inactive) | > 100 µM (inactive) | > 100 µM (inactive) | > 100 µM (inactive) | > 100 µM (inactive) | > 100 µM (inactive) | > 100 µM (inactive) | > 100 µM (inactive) | > 100 µM (inactive) | > 100 µM (inactive) | –
12 | O=[PH](O)c1ccccn1 | > 100 µM (inactive) | > 100 µM (inactive) | > 100 µM (inactive) | > 100 µM (inactive) | – | > 100 µM (inactive) | > 100 µM (inactive) | > 100 µM (inactive) | > 100 µM (inactive) | > 100 µM (inactive) | – | > 100 µM (inactive) | > 100 µM (inactive) | > 100 µM (inactive) | > 100 µM (inactive) | – | > 100 µM (inactive) | – | > 100 µM (inactive) | –
13 | C=C1[C@@H](OC(C)=O)[C@H]2[C@@H](OC(C)=O)[C@@](C)(OC(C)=O)C[C@]2(OC(C)=O)C(=O)[C@@H](C)/C=C/C(C)(C)C(=O)C[C@H]1OC(C)=O | 36.6 µM (inactive) | > 100 µM (inactive) | > 100 µM (inactive) | > 100 µM (inactive) | – | 45.3 µM (inactive) | > 100 µM (inactive) | > 100 µM (inactive) | > 100 µM (inactive) | > 100 µM (inactive) | – | 47.2 µM (inactive) | > 100 µM (inactive) | > 100 µM (inactive) | 35.2 µM (inactive) | > 100 µM (inactive) | > 100 µM (inactive) | > 100 µM (inactive) | – | > 100 µM (inactive)
14 | COCC#C[C@@]1(O)CCCCC1CC(OC)OC (stereo partly specified) | > 100 µM (inactive) | 51.6 µM (inactive) | > 100 µM (inactive) | > 100 µM (inactive) | – | 24.7 µM (inactive) | 42.7 µM (inactive) | > 100 µM (inactive) | > 100 µM (inactive) | – | > 100 µM (inactive) | – | > 100 µM (inactive) | > 100 µM (inactive) | 50.4 µM (inactive) | > 100 µM (inactive) | > 100 µM (inactive) | 60 µM (inactive) | > 100 µM (inactive) | > 100 µM (inactive)
15 | O=C1[C@@H]2C[C@@H](O)CN2C(=O)c2ccccc2N1CCCO | > 100 µM (inactive) | > 100 µM (inactive) | > 100 µM (inactive) | > 100 µM (inactive) | – | > 100 µM (inactive) | 82 µM (inactive) | > 100 µM (inactive) | > 100 µM (inactive) | > 100 µM (inactive) | > 100 µM (inactive) | > 100 µM (inactive) | > 100 µM (inactive) | > 100 µM (inactive) | – | > 100 µM (inactive) | – | > 100 µM (inactive) | > 100 µM (inactive) | > 100 µM (inactive)
16 | Cc1ccc([N+](=O)[O-])c2c(NCCC[N+](C)(C)[O-])ccnc12 | 34.8 µM (inactive) | 58.9 µM (inactive) | 98.9 µM (inactive) | 40.3 µM (inactive) | – | 15 µM (inactive) | 34.8 µM (inactive) | 89.5 µM (inactive) | 29.4 µM (inactive) | > 100 µM (inactive) | 48.8 µM (inactive) | 33.9 µM (inactive) | 28.2 µM (inactive) | 78.9 µM (inactive) | 20.3 µM (inactive) | 35.1 µM (inactive) | 34.4 µM (inactive) | 14.9 µM (inactive) | 21.3 µM (inactive) | > 100 µM (inactive)

Source: ChEMBL document CHEMBL1201862, “PubChem BioAssay data set” (2004)
